Assay results as given in US20210253557A1, “SUBSTITUTED TRIAZOLE DERIVATIVES AND USES THEREOF” (Bayer Pharma Aktiengesellschaft, priority 2017, published 2021).
Where a name gives a salt, the structure may show the parent alone.

Legend:
human V2 receptor = target: T1, human V2 receptor (Homo sapiens, UniProt P30518); assay: Cellular in vitro assay for determining vasopressin receptor activity (V2, CRE-luciferase); assay type: cell-based; conditions: CHO cell line transfected with the human V2 receptor; [Arg8]-vasopressin at EC50 concentration; read-out: IC50 hV2
T1 construct: expressed in transfected cells; host or cells: CHO K1 (ATCC) expressing firefly luciferase under a CRE-responsive promoter
T1 sequence (P30518 whole entry): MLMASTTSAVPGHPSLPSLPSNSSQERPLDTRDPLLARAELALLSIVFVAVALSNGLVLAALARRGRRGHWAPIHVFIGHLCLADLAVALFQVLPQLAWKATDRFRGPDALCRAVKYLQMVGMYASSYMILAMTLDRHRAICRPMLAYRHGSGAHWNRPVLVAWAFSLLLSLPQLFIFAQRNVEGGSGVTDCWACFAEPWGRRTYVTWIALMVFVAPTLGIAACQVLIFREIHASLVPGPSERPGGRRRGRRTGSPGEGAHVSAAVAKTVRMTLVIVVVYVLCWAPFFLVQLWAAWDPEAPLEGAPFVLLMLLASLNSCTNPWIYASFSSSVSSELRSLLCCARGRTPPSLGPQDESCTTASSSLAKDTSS
How it was run: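 Antagonism was measured as inhibition of a 3-h, EC50-level [Arg8]-vasopressin stimulation, with compounds tested at several concentrations, yielding IC50 values. The read-out was cAMP-driven CRE-luciferase luminescence after lysis, in recombinant CHO K1 cells carrying human V2 receptor. Cells were seeded in 2% FCS DMEM/F12 one day earlier.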

human V1a receptor = target: T2, human V1a receptor (Homo sapiens, UniProt P37288); assay: Cellular in vitro assay for determining vasopressin receptor activity (V1a, aequorin luminescence); assay type: cell-based; conditions: for IC50: CHO cell line transfected with the human V1a receptor, [Arg8]-vasopressin at EC50 concentration, read-out: IC50 hV1a; for ratio IC50 hV2/hV1a: selectivity ratio of IC50 hV2 to IC50 hV1a
T2 construct: expressed in transfected cells; host or cells: CHO K1 (ATCC), also stably transfected with a modified aequorin
T2 sequence (P37288 whole entry): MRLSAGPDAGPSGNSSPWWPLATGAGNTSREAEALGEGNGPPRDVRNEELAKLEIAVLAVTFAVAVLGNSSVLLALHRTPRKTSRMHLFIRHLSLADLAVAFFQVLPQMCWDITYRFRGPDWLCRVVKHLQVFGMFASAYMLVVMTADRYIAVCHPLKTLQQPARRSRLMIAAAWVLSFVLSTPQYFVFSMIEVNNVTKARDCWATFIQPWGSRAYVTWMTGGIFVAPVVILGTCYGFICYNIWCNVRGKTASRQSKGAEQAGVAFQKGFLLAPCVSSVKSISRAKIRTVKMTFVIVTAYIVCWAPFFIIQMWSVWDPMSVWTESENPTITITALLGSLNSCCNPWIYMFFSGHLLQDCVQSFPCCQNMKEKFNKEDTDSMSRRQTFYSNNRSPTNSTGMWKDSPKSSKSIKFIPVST

IC50 (human V2 receptor) | IC50 (human V1a receptor) | ratio IC50 hV2/hV1a (human V1a receptor) | SMILES
4.2 nM | 3.09 nM | 1.4 | CC(N)c1nc(Cn2nc(-c3ccc(Cl)cc3)n(C[C@H](O)C(F)(F)F)c2=O)nn1-c1cccc(F)c1 (single isomer, unassigned) [Example 54]
1.81 nM | 28.6 nM | 0.1 | C[C@@H](OC(N)=O)c1nc(Cn2nc(-c3ccc(Cl)cc3)n(C[C@H](O)C(F)(F)F)c2=O)nn1-c1cccc(Cl)c1 [Example 36, (1R)-1-[1-(3-Chlorophenyl)-3-({3-(4-chlorophenyl)-5-oxo-4-[(2S)-3,3,3-trifluoro-2-hydroxypropyl]-4,5-dihydro-1H-1,2,4-triazol-1-yl}methyl)-1H-1,2,4-triazol-5-yl]ethyl Carbamate]
3.63 nM | 0.99 nM | 3.7 | C[C@H](OC(N)=O)c1nc(Cn2nc(-c3ccc(Cl)cc3)n(C[C@H](O)C(F)(F)F)c2=O)nn1-c1ccccc1Cl [Example 33, (1S)-1-[1-(2-Chlorophenyl)-3-({3-(4-chlorophenyl)-5-oxo-4-[(2S)-3,3,3-trifluoro-2-hydroxypropyl]-4,5-dihydro-1H-1,2,4-triazol-1-yl}methyl)-1H-1,2,4-triazol-5-yl]ethyl Carbamate]
18 nM | 5.35 nM | 3.4 | CC(NC(=O)C(F)(F)F)c1nc(Cn2nc(-c3ccc(Cl)cc3)n(C[C@H](O)C(F)(F)F)c2=O)nn1-c1ccccc1Cl (single isomer, unassigned) [Example 74]
150 nM | 557 nM | 0.3 | C[C@@H](OC(N)=O)c1nc(Cn2nc(-c3ccc(Cl)cc3)n(C[C@H](O)C(F)(F)F)c2=O)nn1-c1ccc(Cl)cn1 [Example 17, (1R)-1-[3-({3-(4-Chlorophenyl)-5-oxo-4-[(2S)-3,3,3-trifluoro-2-hydroxypropyl]-4,5-dihydro-1H-1,2,4-triazol-1-yl}methyl)-1-(5-chloropyridin-2-yl)-1H-1,2,4-triazol-5-yl]ethyl Carbamate]
2.74 nM | 1.19 nM | 2.3 | Cc1ccccc1-n1nc(Cn2nc(-c3ccc(Cl)cc3)n(C[C@H](O)C(F)(F)F)c2=O)nc1C(C)N (mixture of isomers) [Example 59, 2-({5-[1-Aminoethyl]-1-(2-methylphenyl)-1H-1,2,4-triazol-3-yl}methyl)-5-(4-chlorophenyl)-4-[(2S)-3,3,3-trifluoro-2-hydroxypropyl]-2,4-dihydro-3H-1,2,4-triazol-3-one trifluoroacetate]
30 nM | 7.7 nM | 3.9 | C[C@H](OC(N)=O)c1nc(Cn2nc(-c3ccc(Cl)cc3)n(C[C@H](O)C(F)(F)F)c2=O)nn1-c1ccncc1Cl [Example 18, (1S)-1-[3-({3-(4-Chlorophenyl)-5-oxo-4-[(2S)-3,3,3-trifluoro-2-hydroxypropyl]-4,5-dihydro-1H-1,2,4-triazol-1-yl}methyl)-1-(3-chloropyridin-4-yl)-1H-1,2,4-triazol-5-yl]ethyl Carbamate]
9.7 nM | 1.1 nM | 8.8 | CS(=O)(=O)NC1(c2nc(Cn3nc(-c4ccc(Cl)cc4)n(C[C@H](O)C(F)(F)F)c3=O)nn2-c2ccccc2Cl)CC1 [Example 78, N-{1-[1-(2-Chlorophenyl)-3-({3-(4-chlorophenyl)-5-oxo-4-[(2S)-3,3,3-trifluoro-2-hydroxypropyl]-4,5-dihydro-1H-1,2,4-triazol-1-yl}methyl)-1H-1,2,4-triazol-5-yl]cyclopropyl}methane sulfonamide]
1550 nM | 190 nM | 8.2 | CC(=O)NC(C)c1nc(Cn2nc(-c3ccc(Cl)cc3)n(C[C@H](O)C(F)(F)F)c2=O)nn1-c1ncccn1 (mixture of isomers) [Example 129, N-{1-[3-({3-(4-Chlorophenyl)-5-oxo-4-[(2S)-3,3,3-trifluoro-2-hydroxypropyl]-4,5-dihydro-1H-1,2,4-triazol-1-yl}methyl)-1-(pyrimidin-2-yl)-1H-1,2,4-triazol-5-yl]ethyl}acetamide]
3.81 nM | 36.6 nM | 0.1 | C[C@H](OC(N)=O)c1nc(Cn2nc(-c3ccc(Cl)cc3)n(C[C@H](O)C(F)(F)F)c2=O)nn1-c1cccc(F)c1 [Example 30, (1S)-1-[3-({3-(4-Chlorophenyl)-5-oxo-4-[(2S)-3,3,3-trifluoro-2-hydroxypropyl]-4,5-dihydro-1H-1,2,4-triazol-1-yl}methyl)-1-(3-fluorophenyl)-1H-1,2,4-triazol-5-yl]ethyl Carbamate]
35 nM | 13.5 nM | 2.6 | C[C@@H](OC(N)=O)c1nc(Cn2nc(-c3ccc(Cl)cc3)n(C[C@H](O)C(F)(F)F)c2=O)nn1-c1ncccc1F [Example 13, (1R)-1-[3-({3-(4-Chlorophenyl)-5-oxo-4-[(2S)-3,3,3-trifluoro-2-hydroxypropyl]-4,5-dihydro-1H-1,2,4-triazol-1-yl}methyl)-1-(3-fluoropyridin-2-yl)-1H-1,2,4-triazol-5-yl]ethyl Carbamate]
17.7 nM | 1.8 nM | 9.8 | CC(=O)NC(C)c1nc(Cn2nc(-c3ccc(Cl)cc3)n(C[C@H](O)C(F)(F)F)c2=O)nn1-c1ccccc1Cl (mixture of isomers) [Example 64, N-{1-[1-(2-Chlorophenyl)-3-({3-(4-chlorophenyl)-5-oxo-4-[(2S)-3,3,3-trifluoro-2-hydroxypropyl]-4,5-dihydro-1H-1,2,4-triazol-1-yl}methyl)-1H-1,2,4-triazol-5-yl]ethyl}acetamide]
340 nM | 6.5 nM | 52.3 | CC(=O)NC1(c2nc(Cn3nc(-c4ccc(Cl)cc4)n(C[C@H](O)C(F)(F)F)c3=O)nn2-c2ccccc2Cl)CC1 [Example 77, N-{1-[1-(2-Chlorophenyl)-3-({3-(4-chlorophenyl)-5-oxo-4-[(2S)-3,3,3-trifluoro-2-hydroxypropyl]-4,5-dihydro-1H-1,2,4-triazol-1-yl}methyl)-1H-1,2,4-triazol-5-yl]cyclopropyl}acetamide]
2.43 nM | 0.83 nM | 2.9 | CC(NS(C)(=O)=O)c1nc(Cn2nc(-c3ccc(Cl)cc3)n(C[C@H](O)C(F)(F)F)c2=O)nn1-c1ccccc1Cl (mixture of isomers) [Example 67, N-{1-[1-(2-Chlorophenyl)-3-({3-(4-chlorophenyl)-5-oxo-4-[(2S)-3,3,3-trifluoro-2-hydroxypropyl]-4,5-dihydro-1H-1,2,4-triazol-1-yl}methyl)-1H-1,2,4-triazol-5-yl]ethyl}methanesulfonamide]
2.26 nM | 26.6 nM | 0.1 | NC(=O)OCc1nc(Cn2nc(-c3ccc(Cl)cc3)n(C[C@H](OC(N)=O)C(F)(F)F)c2=O)nn1-c1cccc(Cl)c1 [Example 25, (2S)-3-[1-({5-[(Carbamoyloxy)methyl]-1-(3-chlorophenyl)-1H-1,2,4-triazol-3-yl}methyl)-3-(4-chlorophenyl)-5-oxo-1,5-dihydro-4H-1,2,4-triazol-4-yl]-1,1,1-trifluoropropan-2-yl Carbamate]
21 nM | 3.3 nM | 6.4 | O=C1NC(c2nc(Cn3nc(-c4ccc(Cl)cc4)n(C[C@H](O)C(F)(F)F)c3=O)nn2-c2ccccc2Cl)CO1 (single isomer, unassigned) [Example 99]
7.16 nM | 0.43 nM | 16.6 | CCNC(=O)OCc1nc(Cn2nc(-c3ccc(Cl)cc3)n(C[C@H](O)C(F)(F)F)c2=O)nn1-c1ccccc1Cl [Example 47, [1-(2-Chlorophenyl)-3-({3-(4-chlorophenyl)-5-oxo-4-[(2S)-3,3,3-trifluoro-2-hydroxypropyl]-4,5-dihydro-1H-1,2,4-triazol-1-yl}methyl)-1H-1,2,4-triazol-5-yl]methyl Ethylcarbamate]
5.8 nM | 0.97 nM | 6.0 | C[C@@H](OC(N)=O)c1nc(Cn2nc(-c3ccc(Cl)cc3)n(C[C@H](O)C(F)(F)F)c2=O)nn1-c1c(Cl)cccc1Cl [Example 2, (1R)-1-[3-({3-(4-Chlorophenyl)-5-oxo-4-[(2S)-3,3,3-trifluoro-2-hydroxypropyl]-4,5-dihydro-1H-1,2,4-triazol-1-yl}methyl)-1-(2,6-dichlorophenyl)-1H-1,2,4-triazol-5-yl]ethyl Carbamate]
875 nM | 57 nM | 15.4 | O=C1NC(c2nc(Cn3nc(-c4ccc(Cl)cc4)n(C[C@H](O)C(F)(F)F)c3=O)nn2-c2ncccc2OC(F)(F)F)CO1 (single isomer, unassigned) [Example 119]
2.83 nM | 0.45 nM | 6.3 | CC(N)c1nc(Cn2nc(-c3ccc(Cl)cc3)n(C[C@H](O)C(F)(F)F)c2=O)nn1-c1ccccc1Cl (single isomer, unassigned) [Example 61]
7.98 nM | 27.6 nM | 0.3 | COCCNC(=O)OCc1nc(Cn2nc(-c3ccc(Cl)cc3)n(C[C@H](O)C(F)(F)F)c2=O)nn1-c1cccc(F)c1 [Example 44, [3-({3-(4-Chlorophenyl)-5-oxo-4-[(2S)-3,3,3-trifluoro-2-hydroxypropyl]-4,5-dihydro-1H-1,2,4-triazol-1-yl}methyl)-1-(3-fluorophenyl)-1H-1,2,4-triazol-5-yl]methyl (2-methoxyethyl)carbamate]
